For 25 compounds, IC50 results are on record in patent publication US9023865B2, “Compounds that are ERK inhibitors” (Merck Sharp & Dohme Corp., priority 2011, dated 2015).

In the assay the target is Active Human ERK2 (hERK2) (Homo sapiens (Human), UniProt P28482). The assay is described as follows: Active Human ERK2 (hERK2) Activity Assay (IMAP-FP). The format is biochemical. The procedure, abridged:
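Reaction contains 0.5 nM activated hERK2, 900 nM unlabeled plus 80 nM labeled peptide and 30 μM ATP, run 60 min. Quenched with IMAP binding beads in buffer with 24 mM NaCl; fluorescence polarization read after 60 min binding equilibration.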

Where [1] appears, read: phosphorylated active hERK2, 30 μM ATP, average, read-out: ERK 2 Human average IC50.

Where two headings read alike, the source gives them in different places.

Sequence of Active Human ERK2 (hERK2) (P28482 whole entry): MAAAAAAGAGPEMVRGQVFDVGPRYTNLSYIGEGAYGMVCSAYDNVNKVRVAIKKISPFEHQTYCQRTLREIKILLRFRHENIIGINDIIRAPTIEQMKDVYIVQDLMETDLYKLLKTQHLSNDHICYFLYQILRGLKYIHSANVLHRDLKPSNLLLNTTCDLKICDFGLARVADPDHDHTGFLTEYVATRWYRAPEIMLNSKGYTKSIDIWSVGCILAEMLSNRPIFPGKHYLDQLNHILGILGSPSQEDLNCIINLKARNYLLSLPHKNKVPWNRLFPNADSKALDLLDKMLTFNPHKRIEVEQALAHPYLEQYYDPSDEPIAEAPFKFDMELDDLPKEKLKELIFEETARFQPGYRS

As usually defined, the IC50 is the concentration at which inhibition is half-maximal. With `Cc1cc(-c2n[nH]c3cc(NC(=O)N[C@H]4CN(C)C[C@@H]4c4ccccc4F)ncc23)ccn1` [Example 183], the IC50 under setting [1] stood at 0.662 nM. Same read-out and setting: for `Cc1cc(-c2n[nH]c3cc(NC(=O)NC4CC(=O)Nc5ccc(F)cc54)ncc23)ccn1` (centres unmarked) [Example 396] the value was 8.46 nM.

In the case of `Cc1cc(-c2n[nH]c3cc(NC(=O)NCC(c4ccccc4)C4(O)CCOCC4)ncc23)ccn1` (centres unmarked) [Example 385], the IC50 under setting [1] was 0.939 nM. The same measure, in the same setting: for `Cc1cc(-c2n[nH]c3cc(NC(=O)NC(C)(C)C)ncc23)ccn1` [Example 36, 1-tert-butyl-3-[3-(2-methylpyridin-4-yl)-1H-pyrazolo[4,3-c]pyridin-6-yl]urea] the value was 32.6 nM; for `Cc1cc(-c2n[nH]c3cc(NC(=O)N[C@H](C)c4ccccn4)ncc23)ccn1` [Example 177], 0.914 nM; for `C[C@@H](NC(=O)Nc1cc2[nH]nc(-c3ccnc(C#N)c3)c2cn1)c1ccc(F)cc1` [Example 258], 1.76 nM. Regarding `O=C(Nc1cc2[nH]nc(C3CC3)c2cn1)N[C@@H]1CCOc2ccccc21` [Example 154], under setting [1], the IC50 came to 70 nM.

For the compound `C[C@@H](NC(=O)Nc1cc2[nH]nc(-c3ccc4nn(C)cc4c3)c2cn1)c1ccc(F)cc1` [Example 63, 1-[(1R)-1-(4-fluorophenyl)ethyl]-3-[3-(2-methyl-2H-indazol-5-yl)-1H-pyrazolo[4,3-c]pyridin-6-yl]urea], the IC50 reads like this: under setting [1], 0.405 nM; (read-out: AERK2 IC50 (Active human ERK2 Activity Assay)) 0.2 to 1.7 nM. Turning to `Cc1cc(-c2n[nH]c3cc(NC(=O)NCc4cnc(C)s4)ncc23)ccn1` [Example 434], the IC50 under setting [1] is 1.14 nM. Same read-out and setting: for `CN1C[C@@H](NC(=O)Nc2cc3[nH]nc(-c4ccc(F)cc4)c3cn2)[C@H](c2ccccc2)C12COC2` [Example 557] the value was 1.86 nM; for `Cc1cc(-c2n[nH]c3cc(NC(=O)N[C@H]4CCCC(F)(F)[C@@H]4O)ncc23)ccn1` [Example 383], 13.3 nM; for `C[C@@H](NC(=O)Nc1cc2[nH]nc(C(=O)NCC3CCOC3)c2cn1)c1ccccc1` (some centres unmarked) [Example 121], 3.83 nM. In the case of `COC[C@@H](NC(=O)Nc1cc2[nH]nc(-c3ccc(C(F)(F)F)nc3)c2cn1)c1ccc(F)cc1` [Example 305], the IC50 under setting [1] is 24.7 nM. On the same count and under the same terms, for `Cc1cc(-c2n[nH]c3cc(NC(=O)NCc4ccc5c(c4)CNC5=O)ncc23)ccn1` [Example 369] the value was 1.41 nM. Regarding `Cc1cc(-c2n[nH]c3cc(NC(=O)N[C@@H]4CCS(=O)(=O)c5ccccc54)ncc23)ccn1` [Example 275], under setting [1], the IC50 amounted to 1.61 nM. Take `Cc1cc(-c2n[nH]c3cc(NC(=O)N[C@@H]4CN(C)C[C@H]4F)ncc23)ccn1` [Example 329, 1-((3R,4R)-4-fluoro-1-methylpyrrolidin-3-yl)-3-(3-(2-methylpyridin-4-yl)-1H-pyrazolo[4,3-c]pyridin-6-yl)urea]: the IC50 under setting [1] is 56.5 nM.

As to `C[C@@H](NC(=O)Nc1cc2[nH]nc(C(=O)NCc3nc4ccncc4[nH]3)c2cn1)c1ccccc1` [Example 117], under setting [1], the IC50 stood at 5.47 nM. Consider `Cc1cc(-c2n[nH]c3cc(NC(=O)NCc4ccccc4OC(F)(F)F)ncc23)ccn1` [Example 523], for which the IC50 under setting [1] worked out at 0.605 nM. As for `Cc1cc(-c2n[nH]c3cc(NC(=O)N[C@H](C)c4ccc(C(F)(F)F)nc4)ncc23)ccn1` [Example 527], the IC50 under setting [1] was 567 nM. Regarding `COC[C@@H](NC(=O)Nc1cc2[nH]nc(C3=NOC(C)C3)c2cn1)c1ccccc1` (some centres unmarked) [Example 686], the IC50 under setting [1] was found to be 23.8 nM. For the compound `CN1CC[C@@H](CNC(=O)Nc2cc3[nH]nc(-c4ccc(F)cc4)c3cn2)C1` [Example 321], the IC50 under setting [1] came to 0.986 nM. Still for that read-out and setting: for `Cc1cc(-c2n[nH]c3cc(NC(=O)N[C@H]4CN(C)C[C@@H]4c4ccc(F)nc4)ncc23)ccn1` [Example 179] the value was 1.45 nM; for `COCCNC(=O)Nc1cc2[nH]nc(-c3ccccc3)c2cn1` [Example 627], 6.09 nM. On the same count and under the same terms, for `COC[C@@H](NC(=O)Nc1cc2[nH]nc(-c3ccc(-n4ccnn4)cc3)c2cn1)c1ccc(F)cc1` [Example 307] the value was 1.75 nM; for `COc1cc(-c2n[nH]c3cc(NC(=O)N[C@H](C)c4ccccc4)ncc23)ccn1` [Example 661], 0.928 nM.
